The record followed here is US11590139B2, “Substituted aminopurine compounds, compositions thereof, and methods of treatment therewith” (Signal Pharmaceuticals, LLC, priority 2014, dated 2023).

Each structure is given as a SMILES string.

For the first experiment, the system named is Lox-IMVI melanoma cell line. Briefly: Lox-IMVI anti-proliferative assay (growth inhibition, Cell Titer-Glo). The experiment is classed as cell-based, human. Conditions: Homo sapiens; IC50 activity level in the cell-based Lox-IMVI anti-proliferative assay; read-out: Activity. Here is the method: Determination of the Growth Inhibitory Effect of Aminopurine Compounds. The Lox-IMVI melanoma cell line (Source: NCI-DCTD, catalog No. 0507283) was maintained and tested in RPMI+10% FBS. The seeding density for the cell line was optimized to ensure assay linearity in 384-well plates.
Increasing concentrations of Aminopurine Compound (0.5 nM to 10 μM) were spotted in a 10-point serial dilution fashion (3-fold dilution) in duplicate within the plate via an acoustic dispenser (EDC ATS-100) into an empty 384-well plate. The dimethyl sulfoxide (DMSO) concentration was kept constant for a final assay concentration of 0.2% DMSO. Prior to testing, cells were grown and expanded in culture flasks to provide sufficient amounts of starting material. Cells were then diluted to their desired densities and added directly to the compound-spotted 384-well plates. Cells were allowed to grow for 72 hours in 5% CO2 at 37° C. At the time when exposure of cells to compound began (t0), initial cell number was assessed via a viability assay (Cell Titer-Glo) by quantifying the level of luminescence generated by adenosine-5′-triphosphate (ATP) present in viable cells. After 72 hours, cell viability of compound-treated cells was assessed via Cell Titer-Glo Luminescent Cell Viability Assay (Promega Corporation, Madison, Wis.) and read for luminescence.
All data was normalized and represented as a percentage of the DMSO-treated control cells after 72 h. Results were expressed as a IC50 value, which is the compound concentration required to inhibit 50% of the untreated control cells during the 72 hours of treatment.
A Four Parameter Logistic Model (Sigmoidal Dose-Response Model) was used to determine the compound's IC50. y=(A+((B−A)/(1+((C/x)^D))))
wherein: • A=YMin • B=YMax • C=EC50 • D=Hill Slope • IC50 is the compound concentration when Y=50% of DMSO control • Y=Luminescence unit
All inhibition curves were processed and evaluated using XLFit and Activity Base (IDBS).
A general note: In ATP-based viability assays light output follows the ATP content of the culture.
`NC(=O)[C@H]1CC[C@@H](n2c(Nc3cccc(Cl)c3Cl)nc3cnc(NC4CCOCC4)nc32)CC1` [Example 62, (1s,4s)-4-(8-(2,3-dichlorophenylamino)-2-(tetrahydro-2H-pyran-4-ylamino)-9H-purin-9-yl)cyclohexanecarboxamide]: the IC50 is greater than 1000 nM.

Take `NC(=O)[C@H]1CC[C@@H](n2c(Nc3c(F)cccc3Cl)nc3cnc(N[C@H]4C[C@H](O)C4)nc32)CC1` [Example 281, (1s,4s)-4-(8-(2-chloro-6-fluorophenylamino)-2-((1R,3r)-3-hydroxycyclobutylamino)-9H-purin-9-yl)cyclohexanecarboxamide]: the IC50 is greater than 1000 nM.

Regarding `CC(C)Nc1ncc2nc(Nc3c(Cl)cc(Cl)cc3Cl)n([C@H]3CC[C@@H](C(N)=O)CC3)c2n1` [Example 59, (1s,4s)-4-(2-(isopropylamino)-8-(2,4,6-trichlorophenylamino)-9H-purin-9-yl)cyclohexanecarboxamide], the IC50 is 500 to 1000 nM.

As to `NC(=O)[C@H]1CC[C@@H](n2c(Nc3c(Cl)cc(F)cc3Cl)nc3cnc(N[C@@H]4CCOC4)nc32)CC1` [Example 222, (1S,4s)-4-(8-(2,6-dichloro-4-fluorophenylamino)-2-((R)-tetrahydrofuran-3-ylamino)-9H-purin-9-yl)cyclohexanecarboxamide], the IC50 lay within 500 to 1000 nM. Same read-out and setting: the figure for `NC(=O)[C@H]1CC[C@@H](n2c(Nc3c(Cl)cccc3Cl)nc3cnc(N[C@@H]4CCC[C@H](O)C4)nc32)CC1` [Example 349, (1S,4s)-4-(8-(2,6-dichlorophenylamino)-2-((1R,3S)-3-hydroxycyclohexylamino)-9H-purin-9-yl)cyclohexanecarboxamide] is greater than 1000 nM. On to `Cc1c(Cl)ccc(F)c1Nc1nc2cnc(NC3CCOCC3)nc2n1[C@H]1CC[C@@H](C(N)=O)CC1` [Example 79, (1s,4s)-4-(8-(3-chloro-6-fluoro-2-methylphenylamino)-2-(tetrahydro-2H-pyran-4-ylamino)-9H-purin-9-yl)cyclohexanecarboxamide], for which the IC50 is greater than 1000 nM. Still for that read-out and setting: the figure for `NC(=O)[C@H]1CC[C@@H](n2c(Nc3c(F)cc(F)cc3F)nc3cnc(N[C@H]4CC[C@H](O)C4)nc32)CC1` [Example 331, (1R,4s)-4-(2-((1S,3S)-3-hydroxycyclopentylamino)-8-(2,4,6-trifluorophenylamino)-9H-purin-9-yl)cyclohexanecarboxamide] is greater than 1000 nM; for `NC(=O)[C@H]1CC[C@@H](n2c(Nc3c(F)cccc3F)nc3cnc(N[C@@H]4CCOC[C@@H]4F)nc32)CC1` [Example 304, (1S,4s)-4-(8-(2,6-difluorophenylamino)-2-((3R,4R)-3-fluorotetrahydro-2H-pyran-4-ylamino)-9H-purin-9-yl)cyclohexanecarboxamide] it is greater than 1000 nM; for `NC(=O)[C@H]1CC[C@@H](n2c(Nc3c(F)ccc(Cl)c3Cl)nc3cnc(NC4CCOCC4)nc32)CC1` [Example 104, (1s,4s)-4-(8-(2,3-dichloro-6-fluorophenylamino)-2-(tetrahydro-2H-pyran-4-ylamino)-9H-purin-9-yl)cyclohexanecarboxamide] it is 250 to 500 nM. In the case of `C[C@@H](CO)Nc1ncc2nc(Nc3c(Cl)cc(C#N)cc3Cl)n([C@H]3CC[C@@H](C(N)=O)CC3)c2n1` [Example 366, (1R,4s)-4-(8-(2,6-dichloro-4-cyanophenylamino)-2-((S)-1-hydroxypropan-2-ylamino)-9H-purin-9-yl)cyclohexanecarboxamide], the IC50 was less than 250 nM. In the case of `C[C@@H](CO)Nc1ncc2nc(Nc3c(Cl)cccc3Cl)n([C@H]3CC[C@@H](C(N)=O)CC3)c2n1` [Example 168, (1R,4s)-4-(8-(2,6-dichlorophenylamino)-2-((S)-1 hydroxypropan-2-ylamino)-9H-purin-9-yl)cyclohexanecarboxamide], the IC50 is greater than 1000 nM.

On to `CC(C)Nc1ncc2nc(Nc3ccc(Cl)cc3Cl)n([C@H]3CC[C@@H](C(N)=O)CC3)c2n1` [Example 96, (1s,4s)-4-(8-(2,4-dichlorophenylamino)-2-(isopropylamino)-9H-purin-9-yl)cyclohexanecarboxamide], for which the IC50 is greater than 1000 nM. On to `NC(=O)[C@H]1CC[C@@H](n2c(Nc3c(Cl)cc(F)cc3Cl)nc3cnc(N[C@@H]4CCC[C@H]4O)nc32)CC1` [Example 256, (1S,4s)-4-(8-(2,6-dichloro-4-fluorophenylamino)-2-((1R,2R)-2-hydroxycyclopentylamino)-9H-purin-9-yl)cyclohexanecarboxamide], for which the IC50 is greater than 1000 nM. The same measure, in the same setting: the figure for `NC(=O)[C@H]1CC[C@@H](n2c(Nc3c(F)ccc(Cl)c3F)nc3cnc(N[C@@H]4CCC[C@H]4O)nc32)CC1` [Example 259, (1S,4s)-4-(8-(3-chloro-2,6-difluorophenylamino)-2-((1R,2R)-2-hydroxycyclopentylamino)-9H-purin-9-yl)cyclohexanecarboxamide] is greater than 1000 nM; for `CC(C)Nc1ncc2nc(Nc3ccc(F)cc3Cl)n([C@H]3CC[C@@H](C(N)=O)CC3)c2n1` [Example 97, (1s,4s)-4-(8-(2-chloro-4-fluorophenylamino)-2-(isopropylamino)-9H-purin-9-yl)cyclohexanecarboxamide] it is greater than 1000 nM.

Still in this experiment, the particulars now being: Homo sapiens; Lox-IMVI anti-proliferative assay, IC50 activity level; read-out: Activity.
Regarding `NC(=O)[C@H]1CC[C@@H](n2c(Nc3c(F)cc(Cl)cc3Cl)nc3cnc(N[C@H]4CCC(F)(F)C4)nc32)CC1` [Example 591, (1R,4s)-4-(8-(2,4-dichloro-6-fluorophenylamino)-2-((S)-3,3-difluorocyclopentylamino)-9H-purin-9-yl)cyclohexanecarboxamide], the IC50 was 250 to 500 nM. Same read-out and setting: the figure for `C[C@]1(C(N)=O)CC[C@@H](n2c(Nc3c(Cl)cc(F)cc3Cl)nc3cnc(N[C@@H]4CCC[C@H](O)C4)nc32)CC1` [Example 567, (1S,4s)-4-(8-(2,6-dichloro-4-fluorophenylamino)-2-((1R,3S)-3-hydroxycyclohexylamino)-9H-purin-9-yl)-1-methylcyclohexanecarboxamide] is 500 to 1000 nM.

Take `C[C@H]1COCC[C@H]1Nc1ncc2nc(Nc3c(F)cc(Cl)cc3Cl)n([C@H]3CC[C@@H](C(N)=O)CC3)c2n1` [Example 505, (1S,4s)-4-(8-(2,4-dichloro-6-fluorophenylamino)-2-((3R,4R)-3-methyltetrahydro-2H-pyran-4-ylamino)-9H-purin-9-yl)cyclohexanecarboxamide]: the IC50 was 250 to 500 nM. Consider `C[C@]1(C(N)=O)CC[C@H](n2c(Nc3c(Cl)cc(F)cc3Cl)nc3cnc(NC4CCC(F)(F)CC4)nc32)CC1` [Example 476, (1r,4r)-4-(8-(2,6-dichloro-4-fluorophenylamino)-2-(4,4-difluorocyclohexylamino)-9H-purin-9-yl)-1-methylcyclohexanecarboxamide], for which the IC50 was greater than 1000 nM. As to `NC(=O)[C@H]1CC[C@@H](n2c(Nc3c(F)cc(Cl)cc3F)nc3cnc(N[C@H]4CCC[C@H](O)C4)nc32)CC1` [Example 460, (1R,4s)-4-(8-(4-chloro-2,6-difluorophenylamino)-2-((1S,3S)-3-hydroxycyclohexylamino)-9H-purin-9-yl)cyclohexanecarboxamide], the IC50 is greater than 1000 nM.

The same experiment, now with this note: Homo sapiens; Lox-IMVI melanoma cell line, anti-proliferative assay; read-out: Activity (IC50 activity level).
In the case of `C[C@]1(C(N)=O)CC[C@@H](n2c(Nc3c(F)cc(C#N)cc3Cl)nc3cnc(N[C@H]4CCC[C@H](O)C4)nc32)CC1` [Example 615, (1R,4s)-4-(8-(2-chloro-4-cyano-6-fluorophenylamino)-2-((1S,3S)-3-hydroxycyclohexylamino)-9H-purin-9-yl)-1-methylcyclohexanecarboxamide], the IC50 was less than 250 nM. Same read-out and setting: the figure for `CC(C)OC(=O)N1CCC[C@@H](Nc2ncc3nc(Nc4c(Cl)cc(Cl)cc4Cl)n([C@H]4CC[C@@H](C(N)=O)CC4)c3n2)C1` [Example 768, (R)-isopropyl 3-(9-((1s,4S)-4-carbamoylcyclohexyl)-8-(2,4,6-trichlorophenylamino)-9H-purin-2-ylamino)piperidine-1-carboxylate] is 500 to 1000 nM; for `C[C@@H]1COCC[C@H]1Nc1ncc2nc(Nc3c(F)cc(Cl)cc3Cl)n([C@H]3CC[C@@](C)(C(N)=O)CC3)c2n1` [Example 717, (1S,4s)-4-(8-(2,4-dichloro-6-fluorophenylamino)-2-((3S,4R)-3-methyltetrahydro-2H-pyran-4-ylamino)-9H-purin-9-yl)-1-methylcyclohexanecarboxamide] it is less than 250 nM; for `C[C@]1(C(N)=O)CC[C@@H](n2c(Nc3c(Cl)cc(C#N)cc3Cl)nc3cnc(N[C@H]4CCC[C@H](O)C4)nc32)CC1` [Example 616, (1R,4s)-4-(8-(2,6-dichloro-4-cyanophenylamino)-2-((1S,3S)-3-hydroxycyclohexylamino)-9H-purin-9-yl)-1-methylcyclohexanecarboxamide] it is less than 250 nM.
